This is an account of results in patent US9738653B2, “Fused furans for the treatment of hepatitis C” (BRISTOL-MYERS SQUIBB COMPANY, priority 2013, dated 2017).

In data set [1] the test system is HCV. The following applies: cited from earlier work.
In data set [2] the test system is genotype 1b (Con-1) HCV replicon in Huh-7 cells. Nature of the data set: HCV replicon luciferase assay. It counts as cell-based. Particulars: 1b replicon, Renilla luciferase, 3 days incubation. The procedure: The cell lines used to evaluate compounds consist of a human hepatocyte derived cell line (Huh-7) that constitutively expresses a genotype 1b (Con-1) HCV replicon or a genotype 1b (Con-1) HCV replicon with an asparagine replacing the cysteine at amino acid 316, or a genotype 2a (JFH-1) replicon, containing a Renilla luciferase reporter gene. These cells were maintained in Dulbecco's modified Eagle medium (DMEM) containing 10% FBS, 100 U/mL penicillin/streptomycin and 1.0 mg/mL G418.
To evaluate compound efficacy, titrated compounds were transferred to sterile 384-well tissue culture treated plates, and the plates were seeded with HCV replicon cells ([…] at a density of 2.4×10^3 cells/well) in DMEM containing 4% FBS (final DMSO concentration at 0.5%). After 3 days incubation at 37° C., cells were analyzed for Renilla Luciferase activity using the EnduRen substrate (Promega cat #E6485) according to the manufacturer's directions. Briefly, the EnduRen substrate was diluted in DMEM and then added to the plates to a final concentration of 7.5 μM. The plates were incubated for at least 1 h at 37° C. then read on a Viewlux Imager (PerkinElmer) using a luminescence program. The 50% effective concentration (EC50) was calculated using the four-parameter logistic formula noted above.

For data set [3], the target named is T1, HCV NS5B genotype 1b (Con1) (Hepatitis C virus genotype 1b, UniProt Q9WMX2).
T1 construct: Each untagged protein was expressed with an 18 amino acid C-terminal truncation to enhance the solubility; made in house; host or cells: E. coli BL21(DE3), pET21a
The data set is described as follows: HCV NS5B RdRp enzyme assay. The following applies: 1b enzyme, 24 hours at 30° C. It counts as biochemical. The procedure:
The cDNA encoding NS5B proteins of HCV genotype 1b (Con1), a genotype 1b variant with amino acid 316 mutated from cysteine to asparagine, and genotype 2a (JFH-1), were cloned into the pET21a expression vector. Each untagged protein was expressed with an 18 amino acid C-terminal truncation to enhance the solubility. The E. coli competent cell line BL21(DE3) was used for expression of the protein. Cultures were grown at 37° C. for ˜4 hours until the cultures reached an optical density of 2.0 at 600 nm. The cultures were cooled to 20° C. and induced with 1 mM IPTG. Fresh ampicillin was added to a final concentration of 50 μg/mL and the cells were grown overnight at 20° C.
The lysis buffer consisted of 20 mM Tris-HCl, pH 7.4, 500 mM NaCl, 0.5% triton X-100, 1 mM DTT, 1 mM EDTA, 20% glycerol, 0.5 mg/mL lysozyme, 10 mM MgCl2, 15 ug/mL deoxyribonuclease I, and Complete™ protease inhibitor tablets (Roche). After addition of the lysis buffer, frozen cell pellets were resuspended using a tissue homogenizer. To reduce the viscosity of the sample, aliquots of the lysate were sonicated on ice using a microtip attached to a Branson sonicator. The sonicated lysate was centrifuged at 100,000×g for 30 minutes at 4° C. and filtered through a 0.2 μm filter unit (Corning).
The protein was purified using two sequential chromatography steps: Heparin sepharose CL-6B and polyU sepharose 4B. The chromatography buffers were identical to the lysis buffer but contained no lysozyme, deoxyribonuclease I, MgCl2 or protease inhibitor and the NaCl concentration of the buffer was adjusted according to the requirements for charging the protein onto the column. Each column was eluted with a NaCl gradient which varied in length from 5-50 column volumes depending on the column type. […] The enzyme was aliquoted and stored at −80° C.
An on-bead solid phase homogeneous assay was used in a 384-well format to assess NS5B inhibitors (WangY-K, Rigat K, Roberts S, and Gao M (2006) Anal Biochem, 359: 106-111). The biotinylated oligo dT12 primer was captured on streptavidin-coupled imaging beads (GE, RPNQ0261) by mixing primer and beads in 1× buffer and incubating at room temperature for three hours. Unbound primer was removed after centrifugation. The primer-bound beads were resuspended in 3× reaction mix (20 mM Hepes buffer, pH 7.5, dT primer coupled beads, poly A template, ^3H-UTP, and RNAse inhibitor (Promega N2515)). Compounds were serially diluted 1:3 in DMSO and aliquoted into assay plates. Equal volumes (5 μL) of water, 3× reaction mix, and enzyme in 3× assay buffer (60 mM Hepes buffer, pH 7.5, 7.5 mM MgCl2, 7.5 mM KCl, 3 mM DTT, 0.03 mg/mL BSA, 6% glycerol) were added to the diluted compound on the assay plate. Final concentration of components in 384-well assay: 0.36 nM template, 15 nM primer, 0.29 μM ^3H-UTP (0.3 μCi, 1.6 U/μL RNAse inhibitor, 7 nM NS5B enzyme, 0.01 mg/mL BSA, 1 mM DTT, and 0.33 μg/μL beads, 20 mM Hepes buffer, pH 7.5, 2.5 mM MgCl2, 2.5 mM KCl, and 0.1% DMSO.
Reactions were allowed to proceed for 24 hours at 30° C. and terminated by the addition of 50 mM EDTA (5 μL). After incubating for at least 15 minutes, plates were read on an Amersham LEADseeker multimodality imaging system.
IC50 values for compounds were determined using ten different [I]. IC50 values were calculated from the inhibition using the four-parameter logistic formula y=A+((B−A)/(1+((C/x)^D))), where A and B denote minimal and maximal % inhibition, respectively, C is the IC50, D is hill slope and x represents compound concentration.

In data set [4] the test system is HCV. Particulars: combination therapy; cited from earlier work.

pEC50, pIC50: −log10 of the molar value.

T1 sequence (Q9WMX2 2420-2992): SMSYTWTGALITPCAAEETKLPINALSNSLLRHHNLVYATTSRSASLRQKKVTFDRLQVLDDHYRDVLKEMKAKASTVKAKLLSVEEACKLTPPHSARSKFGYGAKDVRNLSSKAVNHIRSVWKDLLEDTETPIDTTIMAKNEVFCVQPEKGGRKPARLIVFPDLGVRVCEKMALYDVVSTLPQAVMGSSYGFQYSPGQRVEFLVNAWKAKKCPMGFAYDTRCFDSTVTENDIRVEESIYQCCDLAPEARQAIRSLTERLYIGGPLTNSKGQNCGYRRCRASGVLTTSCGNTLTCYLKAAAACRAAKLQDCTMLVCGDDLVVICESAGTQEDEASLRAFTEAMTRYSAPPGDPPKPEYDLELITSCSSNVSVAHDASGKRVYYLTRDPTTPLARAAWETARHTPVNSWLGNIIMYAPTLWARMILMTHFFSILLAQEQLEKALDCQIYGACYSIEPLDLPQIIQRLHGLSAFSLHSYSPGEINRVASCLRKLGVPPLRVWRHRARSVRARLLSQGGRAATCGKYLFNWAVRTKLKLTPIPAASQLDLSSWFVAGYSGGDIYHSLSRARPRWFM

For the molecule `CNC(=O)c1c(-c2ccc(F)cc2)oc2cc(N(CCO)S(C)(=O)=O)c(C3CC3)cc12` [HCV-796], in the data set with HCV [1] (extended dosing of the combination regimens with interferon and ribavirin), the hepatic toxicity entry is recorded as “hepatic toxicity observed”. For the same molecule, the “HCV RNA levels in patients” value in the data set with HCV [1] (patients, single agent) is “showed an ability to reduce HCV RNA levels in patients”.
`CNC(=O)c1c(-c2ccc(F)cc2)oc2nc(NCC(F)F)c(-c3ccc(OC)c(C(=O)NC45CC(C4)C5)c3)cc12` gave a pEC50 in data set [2] (Hepatitis C virus, Huh-7, 72 h) of 8.21. The negative-log IC50 (pIC50) in data set [3] is 8.05.
For `CCN(c1nc2oc(-c3ccc(F)cc3)c(C(=O)NC)c2cc1-c1cccc(C(=O)NC23CC(C2)C3)c1)S(C)(=O)=O`, in that order: 8.55 and 8.17.
Molecule `CNC(=O)c1c(-c2ccc(F)cc2)oc2ncc(-c3ccc(F)c(C(=O)NC45CC(C4)C5)c3)cc12` gave a pEC50 in data set [2] (Hepatitis C virus, Huh-7, 72 h) of 7.30. The molecule further gave a negative logarithm of the IC50 (pIC50) in data set [3] of 6.66.
Consider `CCCc1cc2oc(-c3ccc(F)cc3)c(C(=O)NC)c2cc1-c1cc(C(=O)NC23CC(C2)C3)c(OC)cc1C`, for which the pEC50 in data set [2] (Hepatitis C virus, Huh-7, 72 h) is 7.52. Besides, the negative-log IC50 (pIC50) in data set [3] was 7.52.
Turning to `CNC(=O)c1c(-c2ccc(F)cc2)oc2cc(CCC(F)(F)F)c(-c3cc(C(=O)NC45CC(C4)C5)c(OC)cc3C)cc12`, the negative logarithm of the EC50 (pEC50) in data set [2] (Hepatitis C virus, Huh-7, 72 h) was 7.40. Further, in data set [3], the pIC50 was 7.30.
`CCC(C)c1cc2oc(-c3ccc(F)cc3)c(C(=O)NC)c2cc1-c1cccc(C(=O)NC23CC(C2)C3)c1` (stereo not shown) [drawing 294]: the pEC50 in data set [2] is 8.00. This molecule showed a negative logarithm of the IC50 (pIC50) in data set [3] of 8.00.
`CNC(=O)c1c(-c2ccc(F)cc2)oc2cc([N+](=O)[O-])c(-c3cccc(C(=O)NC45CC(C4)C5)c3)c(F)c12` showed a negative logarithm of the EC50 (pEC50) in data set [2] (Hepatitis C virus, Huh-7, 72 h) of 6.77. The pIC50 in data set [3] is 6.17.
The corresponding values for `CNC(=O)c1c(-c2ccc(F)cc2)oc2cc(CCCF)c(-c3cccc(C(=O)NC45CC(C4)C5)c3)cc12` are 8.48 and 8.48.
For the molecule `CCCc1cc2oc(-c3ccc(F)cc3)c(C(=O)NC)c2cc1-c1cc(C(=O)NC23CC(C2)C3)c(F)cc1C`, the pEC50 in data set [2] (Hepatitis C virus, Huh-7, 72 h) was 7.52. Moreover, the negative logarithm of the IC50 (pIC50) in data set [3] was 7.70.
In data set [2] (Hepatitis C virus, Huh-7, 72 h), `CNC(=O)c1c(-c2ccc(F)cc2)oc2cc(CC(N)=O)c(-c3cccc(C(=O)NC45CC(C4)C5)c3)cc12` showed a negative-log EC50 (pEC50) of 7.70. Also, the pIC50 in data set [3] was 7.40.
With alpha-interferon and ribavirin, the “sustained efficacy, patients” value in the data set with HCV [4] is on record as 40%.
The molecule `CNC(=O)c1c(-c2ccc(F)cc2)oc2cc(CCC(F)F)c(-c3cccc(C(=O)NC45CC(C4)C5)c3)cc12` gave a negative logarithm of the EC50 (pEC50) in data set [2] (Hepatitis C virus, Huh-7, 72 h) of 8.41. This molecule gave a pIC50 in data set [3] of 8.14.
On to `CNC(=O)c1c(-c2ccc(F)cc2)oc2cc(COC)c(-c3cccc(C(=O)NC45CC(C4)C5)c3)c(F)c12`, for which, in data set [2] (Hepatitis C virus, Huh-7, 72 h), the negative-log EC50 (pEC50) is 8.10. The same molecule had a negative-log IC50 (pIC50) in data set [3] of 6.68.
On to `CCCc1nc2oc(-c3ccc(F)cc3)c(C(=O)NC)c2cc1-c1cccc(C(=O)NC23CC(C2)C3)c1`, for which the pEC50 in data set [2] (Hepatitis C virus, Huh-7, 72 h) is 8.28. In addition, the negative-log IC50 (pIC50) in data set [3] was 8.11.
Consider `CNC(=O)c1c(-c2ccc(F)cc2)oc2nc(NCC(F)(F)F)c(-c3ccc(F)c(C(=O)NC45CC(C4)C5)c3)cc12`, for which, in data set [2] (Hepatitis C virus, Huh-7, 72 h), the pEC50 is 8.36. In data set [3], the pIC50 is 8.04.
The corresponding values for `CNC(=O)c1c(-c2ccc(F)cc2)oc2cc(CCNS(C)(=O)=O)c(-c3cccc(C(=O)NC45CC(C4)C5)c3)cc12` are 7.70 and 8.00.
The corresponding values for `CCNc1cc2oc(-c3ccc(F)cc3)c(C(=O)NC)c2cc1-c1cc(C(=O)NC23CC(C2)C3)c(F)cc1F` are 8.00 and 7.70.
Consider `CNC(=O)c1c(-c2ccc(F)cc2)oc2nc(NCC(F)F)c(-c3cccc(C(=O)NC45CC(C4)C5)c3)cc12`, for which, in data set [2] (Hepatitis C virus, Huh-7, 72 h), the pEC50 was 8.37. In data set [3], the negative-log IC50 (pIC50) is 8.06.
`CNC(=O)c1c(-c2ccc(F)cc2)oc2nc(CCC(F)(F)F)c(-c3cnc(OC)c(C(=O)NC45CC(C4)C5)c3)cc12` showed a pEC50 in data set [2] (Hepatitis C virus, Huh-7, 72 h) of 8.19. This molecule had a negative-log IC50 (pIC50) in data set [3] of 8.44.
In data set [2] (Hepatitis C virus, Huh-7, 72 h), `CNC(=O)c1c(-c2ccc(F)cc2)oc2cc(COC)c(-c3cc(C(=O)NC45CC(C4)C5)c(OC)cc3C)c(F)c12` had a negative logarithm of the EC50 (pEC50) of 7.52. Besides, the pIC50 in data set [3] is 7.52.
In turn, `CCCc1nc2oc(-c3ccc(F)cc3)c(C(=O)NC)c2cc1-c1ccc(F)c(C(=O)NC23CC(C2)C3)c1` showed a pEC50 in data set [2] (Hepatitis C virus, Huh-7, 72 h) of 8.29. In data set [3], the pIC50 was 8.25.
Take `CNC(=O)c1c(-c2ccc(F)cc2)oc2nc(CCC(F)(F)F)c(-c3cccc(C(=O)NC45CC(C4)C5)c3)cc12`: in data set [2] (Hepatitis C virus, Huh-7, 72 h), the pEC50 was 8.39. Moreover, in data set [3], the pIC50 is 8.23.
Consider `CNC(=O)c1c(-c2ccc(F)cc2)oc2nc(CCC(F)(F)F)c(-c3ccc(F)c(C(=O)NC45CC(C4)C5)c3)cc12`, for which the pEC50 in data set [2] (Hepatitis C virus, Huh-7, 72 h) was 8.30. Further, in data set [3], the negative-log IC50 (pIC50) is 8.03.
The corresponding values for `CNC(=O)c1c(-c2ccc(F)cc2)oc2nc(CCC(F)(F)F)c(-c3cc(F)cc(C(=O)NC45CC(C4)C5)c3)cc12` are 8.00 and 7.52.
